Results as given in patent publication US9409983B2, “Methods and compositions involving PBEF inhibitors for lung inflammation conditions and diseases” (The Board of Trustess of the University of Illinois, priority 2009, dated 2016).

Assays:
RENCA cells = conditions: cited from earlier work
human PBEF [1] = assay: In vitro PBEF silencing with siRNAs; assay type: cell-based
Excerpt: In vitro human PBEF stealth siRNAs were designed based on the human PBEF cDNA reference sequence (NM_005746.1) using the BLOCK-iTi RNAi Designer (Invitrogen, Carlsbad, Calif.). The siRNA sequence 1 (as reported in Ye et al. 2005 MVR w/@75% silencing) was custom synthesized from Invitrogen (cat#10620312_40993403, NM_005746); (5′-[…]-3′ SEQ ID NO:4) and scrambled controls (cat#10620312_40993404).
Alternatively, small interfering RNA (siRNA) targeting human PBEF1 (NM_005746) was purchased as 4 ON-TARGETplus SMARTpool siRNA duplexes (catalog#L-004581-00) from Dharmacon (Lafayette, Colo.).

human PBEF [2] = conditions: as reported in Ye et al. 2005; cited from earlier work
[3] = tested on: rat peritoneal neutrophils; assay: Transmigration and chemotaxis assay (Transwell); assay type: cell-based; conditions: rhPBEF (10 ng/ul) or casein in lower chamber, up to 4 hours
Description: Chemotaxis of rat peritoneal neutrophils (calcein-AM) across 3 μm polycarbonate filters was assessed in response to recombinant human PBEF/visfatin (rhPBEF, PeproTech, Rocky Hill, N.J.), or casein (positive control). (See Supplemental Methods for additional details).
Neutrophils were collected from retired breeder male Harlan-Sprague Dawley rats by intraperitoneal injection of 2.5% casein (5 ml). The resulting peritoneal fluid was recovered by PBS peritoneal lavage after 18 hr, centrifuged and examined for total cell counts and cell differentiation. For chemotaxis assays, leukocytes were exposed to calcein-AM in the presence of plurionic acid for 1 hr at room temperature. The temperature was then elevated to 37° C. for 30 min to cleave the calcein AM thereby reducing the rate of calcein diffusion out of the cells. […] The receiving wells were assessed serially in a fluorescent plate reader with absorption at 494 nm and emission measured at 517 nm. Fluorescence was recorded at 5, 10, 15, 30 min and each subsequent 30 min period for up to 4 hr. Aliquots of known numbers of neutrophils were counted in separate wells at each time point to account for any quenching of the fluorescence over time.

O=C(/C=C/c1cccnc1)NCCCCC1CCN(C(=O)c2ccccc2)CC1 [FK-866]
toxicity compared with TNP-470 treatment (RENCA cells; doses of up to 6 mg/kg FK-866, TNP 470 30 mg/kg subcutaneously every other day): less toxic than treatment with TNP-470 | doses with significant antitumor efficacy (RENCA cells; oral, twice daily, days 14 to 19 after tumor cell inoculation): ≥ 10 mg/kg

Invitrogen siRNA: human PBEF stealth siRNA, single sequence, custom synthesized from Invitrogen; 5′-CCACCCAACACAAGCAAAGUUUAUU-3′ SEQ ID NO:4 (Stealth siRNA from Invitrogen, modification pattern not given here)
downregulating PBEF protein expression (human PBEF [1]): effective | PBEF silencing (human PBEF [2]): 75%

casein [reference compound]
PMN migration across Transwell filters [3]: significant at all time points beginning at 30 minutes
